In brackets after ≈: the same amount, converted by molar mass.
Columns and labels:
[1] = system: Bacillus anthracis; experiment: Antimicrobial activity against Gram-positive Bacillus anthracis str. Sterne after 16 to 24 hrs by micro-dilution method; type: functional
[2] = system: Bacillus cereus; experiment: Antimicrobial activity against Gram-positive Bacillus cereus ATCC 17788 after 16 to 24 hrs by micro-dilution method; type: functional
[3] = system: Bacillus subtilis; experiment: Antimicrobial activity against Gram-positive Bacillus subtilis 168 after 16 to 24 hrs by micro-dilution method; type: functional
[4] = system: Listeria monocytogenes; experiment: Antimicrobial activity against Gram-positive Listeria monocytogenes ATCC 19115 after 16 to 24 hrs by micro-dilution method; type: functional
[5] = system: Staphylococcus aureus; experiment: Antimicrobial activity against Gram-positive Staphylococcus aureus ATCC 29213 after 16 to 24 hrs by micro-dilution method; type: functional
[6] = system: Staphylococcus aureus; experiment: Antimicrobial activity against Gram-positive methicillin-resistant Staphylococcus aureus 1 after 16 to 24 hrs by micro-dilution method; type: functional
[7] = system: Staphylococcus aureus; experiment: Antimicrobial activity against Gram-positive methicillin-resistant Staphylococcus aureus 2 after 16 to 24 hrs by micro-dilution method; type: functional
[8] = system: Haemophilus influenzae; experiment: Antimicrobial activity against Gram-negative Haemophilus influenzae ATCC 51907 after 16 to 24 hrs by micro-dilution method; type: functional
[9] = system: Pseudomonas aeruginosa; experiment: Antimicrobial activity against Gram-negative Pseudomonas aeruginosa PAO1 after 16 to 24 hrs by micro-dilution method; type: functional
[10] = system: Mycolicibacterium smegmatis; experiment: Antimicrobial activity against Mycobacterium smegmatis MC2-155 after 16 to 24 hrs by micro-dilution method; type: functional; settings: str. MC2 155
[11] = system: Bacillus anthracis; experiment: Potency index, ratio MIC of tobramycin to MIC of compound for Bacillus anthracis str. Sterne; type: functional
[12] = system: Mycolicibacterium smegmatis; experiment: Potency index, ratio MIC of tobramycin to MIC of compound for Mycobacterium smegmatis MC2-155; type: functional, str. MC2 155
[13] = target: T1, Aminoglycoside 3'-phosphotransferase (Escherichia coli, UniProt P00551); experiment: Drug metabolism assessed as Escherichia coli APH(3')-Ia-mediated compound modification at 100 uM; type: ADME
T1 sequence (P00551 whole entry): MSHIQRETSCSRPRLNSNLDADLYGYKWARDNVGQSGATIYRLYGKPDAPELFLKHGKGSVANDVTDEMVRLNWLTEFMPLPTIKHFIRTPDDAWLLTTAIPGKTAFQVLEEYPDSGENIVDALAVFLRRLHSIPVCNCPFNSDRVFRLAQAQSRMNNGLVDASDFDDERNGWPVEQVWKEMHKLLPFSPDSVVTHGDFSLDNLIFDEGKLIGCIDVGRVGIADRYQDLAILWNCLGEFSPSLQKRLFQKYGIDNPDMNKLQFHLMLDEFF

[14] = Drug metabolism assessed as Escherichia coli AAC(3)-IV mediated compound modification at 100 uM; type: ADME
[15] = Drug metabolism assessed as Staphylococcus aureus Bifunctional AAC(6')-1e/APH(2'')-1a mediated compound modification at 100 uM; type: ADME
[16] = Drug metabolism assessed as Mycobacterium tuberculosis Eis mediated compound modification at 100 uM; type: ADME

`CCN[C@@H]1C[C@H](N)[C@@H](O[C@H]2OC(CN)=CC[C@H]2N)[C@H](O)[C@H]1O[C@H]1OC[C@](C)(O)[C@H](NC)[C@H]1O` [NETILMICIN] showed an MIC [1] of no more than 0.25 µg/mL, an MIC [2] of 4.7 µg/mL (≈ 9.88 µM) and an MIC [3] of 4.7 µg/mL (≈ 9.88 µM). The MIC [4] was 2.3 µg/mL (≈ 4.84 µM), the MIC [5] was no more than 0.25 µg/mL and the MIC [6] was no more than 0.25 µg/mL. It also gave an MIC [7] of no more than 0.25 µg/mL, an MIC [8] of 2.3 µg/mL (≈ 4.84 µM) and an MIC [9] of 2.3 µg/mL (≈ 4.84 µM). It also gave an MIC [10] of no more than 0.25 µg/mL.

`NCC[C@H](O)C(=O)NC[C@H]1O[C@H](O[C@H]2[C@H](O)[C@@H](O[C@H]3O[C@H](CO)[C@@H](O)[C@H](N)[C@H]3O)[C@H](N)C[C@@H]2N)[C@H](N)C[C@@H]1O` showed an MIC [1] of 2 µg/mL (≈ 3.52 µM), an MIC [2] greater than 150 µg/mL and an MIC [3] greater than 150 µg/mL. For the same compound, the MIC [4] was greater than 150 µg/mL, the MIC [5] was 8 µg/mL (≈ 14.1 µM) and the MIC [6] was 16 µg/mL (≈ 28.1 µM). For the same compound, the MIC [7] was greater than 128 µg/mL, the MIC [8] was greater than 150 µg/mL and the MIC [9] was greater than 150 µg/mL. The MIC [10] was 8 µg/mL (≈ 14.1 µM), the Ratio [11] was 32 and the Ratio [12] was “>=16”. For the same compound, the Drug metabolism [13] was “metabolite_notdetected”, the Drug metabolism [14] was “metabolite_detected” and the Drug metabolism [15] was “metabolite_detected”. For the same compound, the Drug metabolism [16] was “metabolite_detected”.

Work on `NCC[C@@H](O)C(=O)NC[C@H]1O[C@H](O[C@@H]2[C@@H](O)[C@H](O[C@@H]3O[C@@H](CO)[C@H](O)[C@@H](N)[C@@H]3O)[C@@H](NC(=O)[C@@H](O)CCN)C[C@H]2N)[C@H](O)[C@@H](O)[C@@H]1O` (stereo in doubt) yielded an MIC [1] greater than 128 µg/mL, an MIC [2] of 150 µg/mL (≈ 218 µM) and an MIC [3] greater than 150 µg/mL. It also gave an MIC [4] of 150 µg/mL (≈ 218 µM), an MIC [5] of 128 µg/mL (≈ 186 µM) and an MIC [6] greater than 128 µg/mL. It also gave an MIC [7] greater than 128 µg/mL, an MIC [8] greater than 150 µg/mL and an MIC [9] of 75 µg/mL (≈ 109 µM). The MIC [10] was 8 µg/mL (≈ 11.6 µM), the Drug metabolism [13] was “metabolite_notdetected” and the Drug metabolism [14] was “metabolite_detected”. For the same compound, the Drug metabolism [15] was “metabolite_detected” and the Drug metabolism [16] was “metabolite_detected”.

With `CN[C@@H]1[C@@H](O)[C@@H](O[C@@H]2[C@@H](O)[C@H](O[C@H]3OC(CN)=CC[C@H]3N)[C@@H](N)C[C@H]2N)OC[C@]1(C)O` [SISOMICIN] the MIC [1] was no more than 0.25 µg/mL, the MIC [2] was 9.4 µg/mL (≈ 21 µM) and the MIC [3] was 4.7 µg/mL (≈ 10.5 µM). For the same compound, the MIC [4] was 2.3 µg/mL (≈ 5.14 µM), the MIC [5] was no more than 0.25 µg/mL and the MIC [6] was no more than 0.25 µg/mL. For the same compound, the MIC [7] was no more than 0.25 µg/mL, the MIC [8] was 4.7 µg/mL (≈ 10.5 µM) and the MIC [9] was 1.2 µg/mL (≈ 2.68 µM). It also gave an MIC [10] of no more than 0.25 µg/mL.

With `NCC(=O)NC[C@H]1O[C@H](O[C@H]2[C@H](O)[C@@H](O[C@H]3O[C@H](CO)[C@@H](O)[C@H](N)[C@H]3O)[C@H](N)C[C@@H]2N)[C@H](N)C[C@@H]1O` the MIC [1] was 0.5 µg/mL (≈ 0.953 µM), the MIC [2] was 18.8 µg/mL (≈ 35.8 µM) and the MIC [3] was 75 µg/mL (≈ 143 µM). For the same compound, the MIC [4] was 18.8 µg/mL (≈ 35.8 µM), the MIC [5] was 8 µg/mL (≈ 15.3 µM) and the MIC [6] was 4 µg/mL (≈ 7.63 µM). It also gave an MIC [7] of 128 µg/mL (≈ 244 µM), an MIC [8] of 75 µg/mL (≈ 143 µM) and an MIC [9] of 18.8 µg/mL (≈ 35.8 µM). The MIC [10] was 4 µg/mL (≈ 7.63 µM), the Ratio [11] was 128 and the Ratio [12] was “>=32”. For the same compound, the Drug metabolism [13] was “metabolite_notdetected”, the Drug metabolism [14] was “metabolite_detected” and the Drug metabolism [15] was “metabolite_detected”. For the same compound, the Drug metabolism [16] was “metabolite_detected”.

Work on `NC[C@H]1O[C@H](O[C@H]2[C@H](O)[C@@H](O[C@H]3O[C@H](CO)[C@@H](O)[C@H](N)[C@H]3O)[C@H](N)C[C@@H]2N)[C@H](N)C[C@@H]1O` [TOBRAMYCIN] yielded an MIC [1] greater than 128 µg/mL, an MIC [2] of 9.4 µg/mL (≈ 20.1 µM) and an MIC [3] of 9.4 µg/mL (≈ 20.1 µM). The MIC [4] was 2.3 µg/mL (≈ 4.92 µM), the MIC [5] was 0.5 µg/mL (≈ 1.07 µM) and the MIC [6] was no more than 0.25 µg/mL. The MIC [7] was greater than 128 µg/mL, the MIC [8] was 4.7 µg/mL (≈ 10.1 µM) and the MIC [9] was 0.6 µg/mL (≈ 1.28 µM). For the same compound, the MIC [10] was no less than 128 µg/mL.

Work on `CN[C@@H]1[C@@H](O)[C@@H](O[C@@H]2[C@@H](O)[C@H](O[C@H]3OC(CNC(=O)CN)=CC[C@H]3N)[C@@H](N)C[C@H]2N)OC[C@]1(C)O` yielded an MIC [1] of no more than 0.25 µg/mL, an MIC [2] of 75 µg/mL (≈ 149 µM) and an MIC [3] of 37.5 µg/mL (≈ 74.3 µM). The MIC [4] was 18.8 µg/mL (≈ 37.3 µM), the MIC [5] was 1 µg/mL (≈ 1.98 µM) and the MIC [6] was 8 µg/mL (≈ 15.9 µM). It also gave an MIC [7] of 2 µg/mL (≈ 3.96 µM), an MIC [8] of 37.5 µg/mL (≈ 74.3 µM) and an MIC [9] of 18.8 µg/mL (≈ 37.3 µM). The MIC [10] was 0.5 µg/mL (≈ 0.991 µM), the Drug metabolism [13] was “metabolite_notdetected” and the Drug metabolism [14] was “metabolite_detected”. The Drug metabolism [15] was “metabolite_detected” and the Drug metabolism [16] was “metabolite_detected”.
